Values quoted from earlier work, collected in US9848760B2, “Devices for continual monitoring and introduction of gastrointestinal microbes” (Gearbox, LLC, priority 2009, dated 2017).

Experiments:
[1] = system: enterotoxigenic Escherichia coli (ETEC); conditions: ETEC infection, MIC90 level, FIG. 17
[2] = system: intestinal microbes
[3] = infant stool, associated with treatment
[4] = infant treated at 4 months of age, relative to reference microbial profile at 1 month of age

Row | Molecule | MIC values [1] | abundance of bacilli [2, 3] | abundance of gamma proteobacteria [2, 3] | bacterial composition in stool samples [2, 4] | total bacterial density in stool samples [2, 4]
1 | CC1(C)S[C@@H]2[C@H](NC(=O)[C@H](N)c3ccccc3)C(=O)N2[C@H]1C(=O)O [AMP, ampicillin] | high |  |  |  | 
2 | COc1cc(Cc2cnc(N)nc2N)cc(OC)c1OC [TMP, trimethoprim] | high |  |  |  | 
3 | TMP/sulfamethoxazole [SXT] | high |  |  |  | 
4 | CC1(C)S[C@@H]2[C@H](NC(=O)[C@H](N)c3ccc(O)cc3)C(=O)N2[C@H]1C(=O)O [amoxicillin] |  | increases | reductions | altered | decrease
